Measured values taken from the supplement of paper PMC10307832.

How the values were obtained:
Assay in all cases: relative viability (nuclei count vs DMSO), 5 days (fraction); higher = more cells survive
UMC-11 = test system: UMC-11
Procedure, shortened: (§1)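 Relative viability divides the nuclei count in treated wells by that in vehicle wells. Lung cancer cell lines were seeded in 1536-well plates, dosed by pin tool the next day, and fixed and stained after 5 days in one step with final 0.05% Triton X-100, 1% formaldehyde and 1 ug/ml Hoechst. Dosing was a single drug or a fixed anchor-drug dose plus five library-drug doses (not always all listed) in √10 steps, and values are medians of duplicate plates imaged at 4×.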

NCI-H2087 = test system: NCI-H2087
Procedure, shortened: as §1

NCI-H3122 = test system: NCI-H3122
Procedure, shortened: as §1

NCI-H2170 = test system: NCI-H2170
Procedure, shortened: as §1

NCI-H1395 = test system: NCI-H1395
Procedure, shortened: as §1

NCI-H1651 = test system: NCI-H1651
Procedure, shortened: as §1

PC-3 [JPC-3] = test system: PC-3 [JPC-3]
Procedure, shortened: as §1

NCI-H1793 = test system: NCI-H1793
Procedure, shortened: as §1

ABC-1 = test system: ABC-1
Procedure, shortened: as §1

CAL-12T = test system: CAL-12T
Procedure, shortened: as §1

RERF-LC-KJ = test system: RERF-LC-KJ
Procedure, shortened: as §1

NCI-H1755 = test system: NCI-H1755
Procedure, shortened: as §1

NCI-H1944 = test system: NCI-H1944
Procedure, shortened: as §1

LOU-NH91 = test system: LOU-NH91
Procedure, shortened: as §1

LU99A = test system: LU99A
Procedure, shortened: as §1

NCI-H460 = test system: NCI-H460
Procedure, shortened: as §1

LC-2-ad = test system: LC-2-ad
Procedure, shortened: as §1

HCC-366 = test system: HCC-366
Procedure, shortened: as §1

NCI-H2405 = test system: NCI-H2405
Procedure, shortened: as §1

HCC-78 = test system: HCC-78
Procedure, shortened: as §1

NCI-H2228 = test system: NCI-H2228
Procedure, shortened: as §1

`COc1cc2nccc(Oc3ccc(NC(=O)Nc4cc(C)on4)c(Cl)c3)c2cc1OC` [Tivozanib] + CS(=O)(=O)CCNCc1ccc(-c2ccc3ncnc(Nc4ccc(OCc5cccc(F)c5)c(Cl)c4)c3c2)o1 [Lapatinib] (partner 2 µM) gave a relative viability (UMC-11; first compound 0.005 µM) of 0.901, a relative viability (UMC-11; first compound 0.01581 µM) of 0.983 and a relative viability (UMC-11; first compound 0.05 µM) of 1.01. It also gave a relative viability (UMC-11; first compound 0.5 µM) of 0.839, a relative viability (NCI-H2087; first compound 0.005 µM) of 1 and a relative viability (NCI-H2087; first compound 0.01581 µM) of 0.885. The relative viability (NCI-H2087; first compound 0.05 µM) was 0.942, the relative viability (NCI-H2087; first compound 0.1581 µM) was 1.2 and the relative viability (NCI-H2087; first compound 0.5 µM) was 0.859. The relative viability (NCI-H3122; first compound 0.005 µM) was 0.972, the relative viability (NCI-H3122; first compound 0.01581 µM) was 0.979 and the relative viability (NCI-H3122; first compound 0.05 µM) was 0.989. For the same compound, the relative viability (NCI-H3122; first compound 0.1581 µM) was 1.16, the relative viability (NCI-H3122; first compound 0.5 µM) was 1.03 and the relative viability (NCI-H2170; first compound 0.005 µM) was 0.252. The relative viability (NCI-H2170; first compound 0.01581 µM) was 0.296, the relative viability (NCI-H2170; first compound 0.05 µM) was 0.266 and the relative viability (NCI-H2170; first compound 0.5 µM) was 0.289. For the same compound, the relative viability (NCI-H1395; first compound 0.005 µM) was 0.939, the relative viability (NCI-H1395; first compound 0.01581 µM) was 1.11 and the relative viability (NCI-H1395; first compound 0.05 µM) was 1.02. The relative viability (NCI-H1395; first compound 0.1581 µM) was 0.863, the relative viability (NCI-H1395; first compound 0.5 µM) was 0.778 and the relative viability (NCI-H1651; first compound 0.005 µM) was 0.744. For the same compound, the relative viability (NCI-H1651; first compound 0.01581 µM) was 0.864, the relative viability (NCI-H1651; first compound 0.05 µM) was 0.863 and the relative viability (NCI-H1651; first compound 0.1581 µM) was 0.653. The relative viability (NCI-H1651; first compound 0.5 µM) was 0.634, the relative viability (PC-3 [JPC-3]; first compound 0.005 µM) was 0.429 and the relative viability (PC-3 [JPC-3]; first compound 0.01581 µM) was 0.453. The relative viability (PC-3 [JPC-3]; first compound 0.05 µM) was 0.509, the relative viability (PC-3 [JPC-3]; first compound 0.1581 µM) was 0.378 and the relative viability (PC-3 [JPC-3]; first compound 0.5 µM) was 0.433. The relative viability (NCI-H1793; first compound 0.005 µM) was 0.619, the relative viability (NCI-H1793; first compound 0.01581 µM) was 0.478 and the relative viability (NCI-H1793; first compound 0.05 µM) was 0.696. The relative viability (NCI-H1793; first compound 0.5 µM) was 0.867, the relative viability (ABC-1; first compound 0.005 µM) was 1.33 and the relative viability (ABC-1; first compound 0.01581 µM) was 1.15. It also gave a relative viability (ABC-1; first compound 0.05 µM) of 1.26, a relative viability (ABC-1; first compound 0.1581 µM) of 1.16 and a relative viability (ABC-1; first compound 0.5 µM) of 1.22. It also gave a relative viability (CAL-12T; first compound 0.005 µM) of 0.563, a relative viability (CAL-12T; first compound 0.01581 µM) of 0.752 and a relative viability (CAL-12T; first compound 0.05 µM) of 0.666. For the same compound, the relative viability (CAL-12T; first compound 0.5 µM) was 0.784, the relative viability (RERF-LC-KJ; first compound 0.005 µM) was 0.816 and the relative viability (RERF-LC-KJ; first compound 0.01581 µM) was 0.843. It also gave a relative viability (RERF-LC-KJ; first compound 0.05 µM) of 0.902, a relative viability (RERF-LC-KJ; first compound 0.1581 µM) of 0.819 and a relative viability (RERF-LC-KJ; first compound 0.5 µM) of 0.834. The relative viability (NCI-H1755; first compound 0.005 µM) was 0.945, the relative viability (NCI-H1755; first compound 0.01581 µM) was 0.991 and the relative viability (NCI-H1755; first compound 0.05 µM) was 1.03. It also gave a relative viability (NCI-H1755; first compound 0.1581 µM) of 1.02, a relative viability (NCI-H1755; first compound 0.5 µM) of 1.02 and a relative viability (NCI-H1944; first compound 0.005 µM) of 0.826. It also gave a relative viability (NCI-H1944; first compound 0.01581 µM) of 0.888, a relative viability (NCI-H1944; first compound 0.05 µM) of 0.758 and a relative viability (NCI-H1944; first compound 0.1581 µM) of 0.666. It also gave a relative viability (NCI-H1944; first compound 0.5 µM) of 0.841, a relative viability (LOU-NH91; first compound 0.005 µM) of 0.704 and a relative viability (LOU-NH91; first compound 0.01581 µM) of 0.772. The relative viability (LOU-NH91; first compound 0.05 µM) was 0.758, the relative viability (LOU-NH91; first compound 0.1581 µM) was 0.62 and the relative viability (LOU-NH91; first compound 0.5 µM) was 0.794. The relative viability (LU99A; first compound 0.005 µM) was 0.914, the relative viability (LU99A; first compound 0.01581 µM) was 0.924 and the relative viability (LU99A; first compound 0.05 µM) was 0.967. For the same compound, the relative viability (LU99A; first compound 0.5 µM) was 0.919, the relative viability (NCI-H460; first compound 0.005 µM) was 0.889 and the relative viability (NCI-H460; first compound 0.01581 µM) was 1. It also gave a relative viability (NCI-H460; first compound 0.05 µM) of 0.979, a relative viability (NCI-H460; first compound 0.1581 µM) of 1.12 and a relative viability (NCI-H460; first compound 0.5 µM) of 0.948. The relative viability (LC-2-ad; first compound 0.005 µM) was 0.959, the relative viability (LC-2-ad; first compound 0.01581 µM) was 0.944 and the relative viability (LC-2-ad; first compound 0.05 µM) was 0.856. For the same compound, the relative viability (LC-2-ad; first compound 0.1581 µM) was 0.542, the relative viability (LC-2-ad; first compound 0.5 µM) was 0.466 and the relative viability (HCC-366; first compound 0.005 µM) was 0.991. It also gave a relative viability (HCC-366; first compound 0.01581 µM) of 1.08, a relative viability (HCC-366; first compound 0.05 µM) of 1.12 and a relative viability (HCC-366; first compound 0.1581 µM) of 1.03. For the same compound, the relative viability (HCC-366; first compound 0.5 µM) was 0.976, the relative viability (NCI-H2405; first compound 0.005 µM) was 0.972 and the relative viability (NCI-H2405; first compound 0.01581 µM) was 1.28. For the same compound, the relative viability (NCI-H2405; first compound 0.05 µM) was 1.1, the relative viability (NCI-H2405; first compound 0.1581 µM) was 1.01 and the relative viability (NCI-H2405; first compound 0.5 µM) was 0.572. The relative viability (HCC-78; first compound 0.005 µM) was 0.683, the relative viability (HCC-78; first compound 0.01581 µM) was 0.772 and the relative viability (HCC-78; first compound 0.05 µM) was 0.851. It also gave a relative viability (HCC-78; first compound 0.1581 µM) of 1.58, a relative viability (HCC-78; first compound 0.5 µM) of 0.455 and a relative viability (NCI-H2228; first compound 0.005 µM) of 1.07. The relative viability (NCI-H2228; first compound 0.01581 µM) was 1.1, the relative viability (NCI-H2228; first compound 0.05 µM) was 1.07 and the relative viability (NCI-H2228; first compound 0.1581 µM) was 1.03. For the same compound, the relative viability (NCI-H2228; first compound 0.5 µM) was 0.948.
